According to US20250101429A1, “siRNAs and shRNAs Targeting HIV and Combinations, Expression Cassettes, Cells and Use Thereof” (BEIJING SOLOBIO GENETECHNOLOGY CO., LTD., priority 2021, published 2025):

Assays:
Format in all cases: cell-based
HIV-1 IIIB = assay: Antiviral activity of recombinant lentiviruses against HIV-1 IIIB in H9 cells (P24 antigen ELISA); conditions: H9 + HIV-1 IIIB, positive drug, concentration 1 μM; for Relative concentration(%): vs no-drug control = 100; for Average concentration of P24: day 7
Experimental: The H9 cells were resuscitated and subcultured in complete medium (RPMI-1640+10% FBS+PS). The cells were resuspended in OPTI-MEM medium, counted and adjusted to a concentration of 5×10^5 cells/ml, and inoculated in 6-well plates with 2 ml per well. The experimental groups SIV-Gag3, SIV-Gag2, SIV-Gag1, SIV-LTR2 or SIV-Nef, SIV-EGFP empty vector control group and blank control group (no HIV-1 IIIB infection, and […]) were set on the 6-well plates. The above recombinant lentiviruses were added to the 6-well plates with the multiplicity of infection (MOI) of 2000, mixed, and cultured at 37° C., 5% CO2 for 24 hours. Each well was supplemented with 4 ml complete medium and cultured at 37° C., 5% CO2 for 72 hours.
(§1) 5 ml of supernatant from each well of 6-well plates was discarded and another 5 ml of fresh complete medium was added. Cells were diluted and inoculated in 96-well plates at 1×10^4 cells/well. 0.5 ml of HIV-1 IIIB was diluted with 5.75 ml of complete medium and mixed. Then 100 μl of virus diluent was added to each well of cells, except for the blank control group, mixed and incubated at 37° C. and 5% CO2. Half volume of liquid was changed on day 2 and day 4 after HIV-1 IIIB infection, respectively. 150 μl of sample was taken from each well on day 7 after infection, sealed and heated at 56° C. for 30 minutes. After the HIV viruses were thermally inactivated, the sample was stored at −20° C., ready for ELISA detection.
HIV-1 P24 antigen detection kit (96T) (Beijing Jinboyi Biotechnology Co., Ltd.) was used for ELISA detection. The OD Value was measured with a microplate reader. Then average value, and relative concentration was calculated to determine the antiviral activity of the recombinant lentiviruses against HIV-1 IIIB in H9 cells.
The H9 cells were resuscitated and subcultured in complete medium (RPMI-1640+10% FBS+PS). The cells were resuspended in OPTI-MEM medium, counted and adjusted to a concentration of 5×10^5 cells/ml, and inoculated in 6-well plates with 2 ml per well. The experimental groups SIV-G3L2, SIV-G2L2, SIV-G1L2, or SIV-G2N, SIV-EGFP empty vector control group, positive drug control group (Efavirenz, EFV, Shanghai Desano Pharmaceuticals Co., Ltd., Concentration 1 μM), no-drug control group (HIV-1 IIIB infection, and no recombinant lentivirus drug administration) and blank control group (no HIV-1 IIIB infection, and no lentivirus drug administration) were set on the 6-well plates. The recombinant lentiviruses were added to the 6-well plates at five doses with the multiplicity of infection (MOI) of 125, 250, 500, 1000, and 2000, and the added volumes were 2.1 μL, 4.2 μL, 8.4 μL, 16.7 μL, 33.3 μL, respectively, with one well for each dose. The recombinant lentivirus SIV-EGFP with MOI of 2000 was added as an empty vector control, the volume was 33.3 μL. Mixed, and cultured at 37° C. and 5% CO2 for 24 hours. Each well was supplemented with 4 ml complete medium and cultured at 37° C., 5% CO2 for 72 hours.
as §1, with “the cells” for “Cells”

[1] = test system: HIV reverse transcriptase inhibitor resistant strain MT2-010; assay: Antiviral activity against reverse transcriptase inhibitor resistant strain MT2-010 in MT2 cells (P24 ELISA); conditions: MT2 + MT2-010, positive drug, concentration 1 μM; for Average concentration: P24 ELISA; for Relative concentration(%): vs no-drug control = 100
Experimental: The experimental design of example 4 was the same as that of Example 3, except that the tested strain was a reverse transcriptase inhibitor resistant strain MT2-010, and the infected cells were MT2 cells. Firstly, cell culture and recombinant lentivirus infection: the experimental group SIV-G3L2 or
(§2) SIV-G2N, SIV-EGFP empty vector control group, positive drug control group (Efavirenz, EFV, Shanghai Desano Pharmaceuticals Co., Ltd., Concentration 1 μM), no drug control group (MT2-010 infection, and no recombinant lentivirus drug administration), and a blank control group were set on the 6-well plates. The recombinant lentiviruses were added to the 6-well plates with the multiplicity of infection (MOI) of 125, 250, 500, 1000 and 2000, respectively, and the recombinant lentivirus SIV-EGFP with MOI of 2000 was added as an empty vector control. Mixed and cultured.
Then virus challenge: the MT2 cells were diluted and inoculated in 96-well plates at 1×10^4 cells/well. The reverse transcriptase inhibitor resistant strain MT2-010 was diluted with complete culture medium, and mixed. The virus diluent was added into each well of cells, except for the blank control group. Mixed and cultured. The sampling was performed as described in Example 3, and ELISA detection was performed by using the above-mentioned kit. The OD value was measured with a microplate reader. Then average value, and relative concentration was calculated to determine the antiviral activity of the recombinant lentiviruses against MT2-010 in MT2 cells.

[2] = test system: HIV protease inhibitor resistant strain MT2-884; assay: Antiviral activity against protease inhibitor resistant strain MT2-884 in MT2 cells (P24 ELISA); conditions: Table 9, MT2 + MT2-884, positive drug, concentration 1 μM
Experimental: as §2, with “The experimental method of example 5 was the same as Step 1 of Example 3, except that the tested strain was a protease inhibitor resistant strain MT2-884, and the infected cells were MT2 cells. Firstly, cell culture and recombinant lentivirus SIV-G3L2 or SIV-G2N infection: Cells were cultured in 6-well plates, and the experimental group SIV-G3L2 or SIV-G2N,” for “SIV-G2N,”, “(MT2-884” for “(MT2-010”
Then virus challenge: the MT2 cells were diluted and inoculated in 96-well plates at 1×10^4 cells/well. […] The OD value was measured with a microplate reader. then average value, and relative concentration was calculated to determine the antiviral activity of the recombinant lentiviruses against MT2-884 in MT2 cells.

Structure (SMILES): O=C1Nc2ccc(Cl)cc2[C@@](C#CC2CC2)(C(F)(F)F)O1 [EFV, Efavirenz]
- Average concentration (HIV-1 IIIB; Table 3, P24 ELISA day 7): 10
- Relative concentration(%) (HIV-1 IIIB; Table 3): 0.05%
- Average concentration of P24 (HIV-1 IIIB; Table 4): <10 pg/mL
- Relative concentration(%) (HIV-1 IIIB; Table 4): 0.05%
- Average concentration of P24 (HIV-1 IIIB; Table 5): <10 pg/mL
- Relative concentration(%) (HIV-1 IIIB; Table 5): 0.05%
- Average concentration of P24 (HIV-1 IIIB; Table 6): <10 pg/mL
- Relative concentration(%) (HIV-1 IIIB; Table 6): 0.05%
- Average concentration ([1]; Table 7): 52.69
- Relative concentration(%) ([1]; Table 7): 0.17%
- Average concentration ([1]; Table 8): 59.36
- Relative concentration(%) ([1]; Table 8): 0.21%
- Average concentration(pg/ml) ([2]; P24 ELISA): 50 pg/mL
- Relative concentration(%) ([2]; vs no-drug control = 100): 0.51%
